Experimental findings from patent US20240344095A1, “PROCESS FOR THE PRODUCTION OF MICROBIAL CELLULOSE USING WASTE TEXTILES” (Sanko Tekstil Isletmeleri San. Ve Tic. A.S., priority 2023, published 2024) are described below.

The test system of this test is Gluconacetobacter hansenii ATCC 53582. Kind of test: Effect of additives in waste textile glucose medium on bacterial cellulose production. It is filed as cell-based. The conditions noted are these: 14 days. As for the experimental part: The bacterial strain Gluconacetobacter hansenii ATCC 53582 was grown in 500 mL of waste textile glucose medium at an incubation temperature of 28° C.-30° C., for 14 days, in a close-lid plastic box. Different experiments were carried out to test the effect of the addition of different additives (TiBALDH, Glycerol, Ascorbic Acid) in different concentration on the production of bacterial cellulose. At the end of the incubation, the amount of the wet bacterial cellulose obtained was determined. Comparisons of wet bacterial amount change (%) in Table 2, 3, 4, and 5 are based on data in Table 1.

The mark [1] stands for this setting: additives marked + at 0.5% Vitamin C, 1% Glycerol, 0.25% TiBALDH in WTG medium.

For the compound `OCC(O)CO` [Glycerol, glycerol], the “Wet BC amount change” value by setting is: (Glycerol Concentration 0.5 % in WTG medium, compared with Table 1) 10.93%; (Glycerol Concentration 1.0 % in WTG medium, compared with Table 1) 19.74%; (Glycerol Concentration 2.0 % in WTG medium, compared with Table 1) 10.15%; under setting [1], 19.74%.

Turning to `O=C1O[C@H]([C@@H](O)CO)C(O)=C1O` [Vitamin C, ascorbic acid], the “Wet BC amount change” value is reported as 6.75% (Vitamin C Concentration 0.25 % in WTG medium, compared with Table 1); 9.25% (Vitamin C Concentration 0.50 % in WTG medium, compared with Table 1); 8.13% (Vitamin C Concentration 1.00 % in WTG medium, compared with Table 1); 6.95% (Vitamin C Concentration 2.00 % in WTG medium, compared with Table 1); 5.57% (Vitamin C Concentration 3.00 % in WTG medium, compared with Table 1); 2.96% (Vitamin C Concentration 4.00 % in WTG medium, compared with Table 1). Besides, under setting [1], the “Wet BC amount change” value was found to be 9.25%.

As for “Titanium (IV) bis-(ammonium lactato) dihydroxide [TiBALDH]”, the “Wet BC amount change” value runs as follows: (TiBALDH Concentration 0.0050 % in WTG medium, compared with Table 1) 7.04%; (TiBALDH Concentration 0.0250 % in WTG medium, compared with Table 1) 18.10%; (TiBALDH Concentration 0.0500 % in WTG medium, compared with Table 1) 24.13%; (TiBALDH Concentration 0.2500 % in WTG medium, compared with Table 1) 55.30%; (TiBALDH Concentration 0.5000 % in WTG medium, compared with Table 1) 17.10%; (TiBALDH Concentration 1.0000 % in WTG medium, compared with Table 1) −26.79%. Moreover, the “Wet BC amount change” value under setting [1] worked out at 55.30%.
